# In patent US9241942B2, “IRE-1α inhibitors” (MannKind Corporation, priority 2007, dated 2016):
# Key:
# human IRE-1α = human IRE-1α (Homo sapiens (Human), UniProt O75460); assay: IRE-1α assay: cleavage of mini-XBP-1 mRNA stem-loop substrate by GST-IRE-1α in vitro; type: biochemical; settings: values in text
# Method: A fusion protein comprising glutathione S transferase (GST) and human IRE-1α (GST-IRE-1α) was obtained from a 500 ml baculovirus-infected insect cell culture and used to measure IRE-1α activity in vitro.
# Five μl of a reaction mixture comprising 1× reaction buffer (5× reaction buffer is 100 mM Hepes pH 7.5, 250 mM KOAc, 2.5 mM MgCl2), 3 mM DTT, and 0.4% polyethylene glycol water were added to each well of 384 well plates. Twenty-five nanoliters of a 1 mM test compound solution were added to test wells. […] Negative control wells contained only reaction mixture and test compound.
# The plates were again spun at 1200 rpm for 30 seconds.
# The plates were covered with lids and incubated for one hour at 30° C. The plates were then transferred to an ACQUEST™ microplate reader. Data was analyzed using data analysis software, and the percent activity of IRE-1α was calculated.
# RNase A = RNase A (Bos taurus (Bovine), UniProt P61823); assay: RNase A assay with mini-XBP-1 mRNA stem-loop substrate; type: biochemical; settings: 2.5 μM test compound
# Sequence of RNase A (P61823 27-150): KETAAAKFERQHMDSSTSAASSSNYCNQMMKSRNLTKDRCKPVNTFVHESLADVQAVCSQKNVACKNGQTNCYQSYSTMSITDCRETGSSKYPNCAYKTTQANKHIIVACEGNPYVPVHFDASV
# Method: RNase A was assayed as described for RNase T1. Final concentrations for the assay were: 63 nM substrate, 0.4 pg RNase A (Qiagen; 100 mg/ml or 7000 U/ml), and 2.5 μM test compound.
# RNase T1 = RNase T1 (Aspergillus oryzae (strain ATCC 42149 / RIB 40) (Yellow koji mold), UniProt P00651); assay: T1 RNase assay with mini-XBP-1 mRNA stem-loop substrate; type: biochemical; settings: 2.5 μM test compound
# Sequence of RNase T1 (P00651 27-130): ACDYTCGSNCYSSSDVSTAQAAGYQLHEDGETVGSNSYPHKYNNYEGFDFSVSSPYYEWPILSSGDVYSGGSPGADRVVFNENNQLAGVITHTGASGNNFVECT
# Method: T1 RNase was assayed as follows. Five μl of a reaction mixture comprising 1× reaction buffer (5× reaction buffer is 100 mM Hepes pH 7.5, 250 mM KOAc, 2.5 mM MgCl2), 3 mM DTT, and 0.4% polyethylene glycol water were added to each well of 384 well plates. Twenty-five nanoliters of a 1 mM test compound solution were added to test wells. Three μl of a 1/48,000 dilution of an approximately 200,000 U/ml RNase T1 (Worthington) preparation were added to each test well and to positive control wells (final concentration 49.5 pg/well). Negative control wells contained only reaction mixture and test compound.
# After spinning the plates at 1200 rpm for 30 seconds, 3 μl of the mini-XBP-1 mRNA stem-loop substrate described in Example 1 were added to each well of a control plate. The plates were again spun at 1200 rpm for 30 seconds. Final concentrations for the assay were: 63 nM substrate, 49.5 pg RNase T1, and 2.5 μM test compound.
# The plates were covered with lids and incubated for one hour at 30° C. The plates were then transferred to an ACQUEST™ microplate reader. Data was analyzed using data analysis software. The percent activity of RNase T1 was calculated.
# [1] = system: RPMI-8226 multiple myeloma cells; assay: Proliferation of multiple myeloma cells (CellTiter-Glo); type: cell-based, human; settings: 24 hours, 100 μM to 0 μM
# Method: FIG. 5. Graph showing inhibition of proliferation of multiple myeloma cells by IRE-1α inhibitor 11-28 (Example 11). RPMI-8226 multiple myeloma cells were seeded at 20,000 cells per well in RPMI culture medium containing 1% FBS and the required antibiotics. The plate was incubated overnight at 37° C., 95% air, 5% CO2. The following day, compound 11-28 or medium alone was added to wells, resulting in a final volume of 100 μl per well. The compound concentration ranged from 100 μM to 0 μM, with compounds diluted by a factor of 4. After addition of compound, the plate was incubated at 37° C., 95% air, 5% CO2 for 24 hours. Cell proliferation was measured using the CellTiter-Glo assay (Promega), following the manufacturer's instructions.
# Proliferation assays using myeloma cell lines (U266, RPMI8226 and MM.1s) are used to determine ED50. Compounds are used as single agents and in combination with other chemotherapeutic drugs.
# primary murine B cells = assay: IgM secretion after LPS stimulation of primary B cells (ELISA); type: cell-based, mouse; settings: added at beginning of stimulation and again at 24 hours, 20 μg/ml LPS, 48 hr
# Method: FIG. 9. Inhibition of IgM secretion after LPS stimulation of primary murine B cells with selected IRE-1α inhibitors. […] However, compounds had little effect when at added after 40 hours of stimulation; only slight inhibition at the highest dose. Methods were performed as previously described by Iwakoshi et al., Nature 4, 321-29, 2003 for B cell stimulation, plasma cell differentiation and IgM secretion. Primary B cells were Isolated from BALB/c splenocytes using mouse CD43 Microbeads (Miltenyi cat#130-049-801) with 1×10^6 cells per treatment. Purified B cells were stimulated in B Cell Media at a final density of 1×10^6/ml/well in 24-well plates with 20 μg/ml LPS (Sigma cat#L4391). IRE-1α inhibitor compound 17-1 was added at various concentrations (50 μM, 10 μM, 2 μM, 0.4 μM and 0.08 μM) at specified time points (t=0, t=24 hr, t=40 hr, etc.) Cells were incubated for 48 hr at 37° C. At end of the incubation, cells were spun in a plate at 1500 rpm/3 min. Supernatants were collected for quantitation for IgM secretion using a mouse IgM ELISA Kit (Bethyl Labs cat#E90-101). B Cell medium included RPMI+10% FBS supplemented with NEAA, HEPES, NaPyr, PSQ, and β-mercaptoethanol.
# [2] = system: phosphorylated IRE-1α and XBP1-splicing in RPMI8226 cells; assay: Western blot and RT-PCR of RPMI8226 cells after 24 hour treatment; type: cell-based, human
# Excerpt: FIG. 6. […] The numbers indicate the concentration of bortezomib in nM.
# Sequence of human IRE-1α (O75460 19-977): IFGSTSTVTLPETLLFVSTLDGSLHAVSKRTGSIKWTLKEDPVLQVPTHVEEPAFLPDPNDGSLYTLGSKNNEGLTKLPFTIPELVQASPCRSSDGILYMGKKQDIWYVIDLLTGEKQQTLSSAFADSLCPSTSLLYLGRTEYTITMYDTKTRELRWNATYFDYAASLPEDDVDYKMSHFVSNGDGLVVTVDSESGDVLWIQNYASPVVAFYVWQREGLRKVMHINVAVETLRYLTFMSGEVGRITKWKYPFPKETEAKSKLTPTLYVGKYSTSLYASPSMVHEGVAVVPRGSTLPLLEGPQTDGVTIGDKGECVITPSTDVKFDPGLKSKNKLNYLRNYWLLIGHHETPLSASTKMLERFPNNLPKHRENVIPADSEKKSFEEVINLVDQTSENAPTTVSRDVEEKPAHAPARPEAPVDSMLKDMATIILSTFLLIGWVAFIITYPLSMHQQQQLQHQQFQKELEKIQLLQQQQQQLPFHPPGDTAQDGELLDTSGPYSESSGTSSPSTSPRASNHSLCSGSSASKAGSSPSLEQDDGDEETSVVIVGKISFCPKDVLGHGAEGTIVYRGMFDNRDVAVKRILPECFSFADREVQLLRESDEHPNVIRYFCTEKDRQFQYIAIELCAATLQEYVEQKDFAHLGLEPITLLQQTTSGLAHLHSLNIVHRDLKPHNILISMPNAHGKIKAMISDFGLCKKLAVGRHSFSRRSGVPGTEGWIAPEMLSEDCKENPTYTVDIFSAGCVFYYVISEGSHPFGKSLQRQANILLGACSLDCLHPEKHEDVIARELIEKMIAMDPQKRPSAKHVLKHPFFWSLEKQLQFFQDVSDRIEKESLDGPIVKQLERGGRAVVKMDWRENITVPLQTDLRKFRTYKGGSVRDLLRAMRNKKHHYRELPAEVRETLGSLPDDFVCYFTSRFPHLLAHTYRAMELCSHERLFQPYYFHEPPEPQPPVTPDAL
SMILES,selectivity for IRE-1 over RNase A (RNase A),selectivity for IRE-1 over T1 RNase (RNase T1),also measured
"CCOc1cccc(C=O)c1O [3-ethoxy o-vanillin, 2-hydroxy-3-ethoxybenzaldehyde]",selective for IRE-1,selective for IRE-1,IC50 (human IRE-1α): 1 µM
COc1ccc(Br)c(C=O)c1O [6-bromo o-vanillin],selective for IRE-1,selective for IRE-1,–
COc1cc(-c2cccs2)cc(C=O)c1O [11-28],–,–,inhibition of proliferation [1]: inhibits the proliferation
"CN(C)C(=O)c1ccc(-c2ccc3c(C=O)c(O)ccc3c2)cc1 [17-1, 4-(5-formyl-6-hydroxynaphthalen-2-yl)-N,N-dimethylbenzamide]",–,–,IgM secretion (primary murine B cells): blocked IgM secretion at all doses tested down to 100 nM
"CC(C)C[C@H](NC(=O)[C@H](Cc1ccccc1)NC(=O)c1cnccn1)B(O)O [bortezomib, [(1R)-3-methyl-1-[[(2S)-1-oxo-3-phenyl-2-[(pyrazinylcarbonyl)amino]propyl]amino]butyl]boronic acid]",–,–,levels of phosphorylated IRE-1α and XBP1-splicing [2]: increases the levels of phosphorylated IRE-1α and XBP1-splicing
"COc1cccc(C=O)c1O [o-vanillin, 2-hydroxy-3-methoxybenzaldehyde]",selective for IRE-1,selective for IRE-1,–
